Data taken from US11266710B2, “Angio-3 for treatment of retinal angiogenic diseases” (SINGAPORE HEALTH SERVICES PTE LTD, priority 2017, dated 2022).
Where no end group is shown, it is not given here. [ ]: non-standard residue; d: D form. hArg = N=C(N)NCCCC[C@H](N)C(=O)O

Columns and labels:
[1] = tested on: laser-induced CNV in C57/BL6J (B6J) wild type mice; test: Laser-induced choroidal neovascularization (CNV) model in mice, area of leakage by FFA; type: in vivo; conditions: for Area of Leakage (mean) Week 1 / Area of Leakage (mean) Week 4: laser-induced CNV mice; for Area of Leakage (mean) Week 1 / Area of Leakage (mean) Week 4 / choroidal angiogenesis: prevention mode; for % Reduction (area of leakage): vehicle control = 0%; for choroidal angiogenesis: B6J mice, single intravitreal injection at dose 100 ng, 1 g, and 5 μg
Experimental: FIG. 3A is a schematic of the experimental design on the efficacy of Angio-3 in a laser-induced choroidal neovascularization (CNV) model in mice (B6J WT mice). FIG. 3B are FFA images of baseline and at different time points post treatment. IV single injection of 100 μL of Angio-3 (25 mg/Kg Bwt) was given at Day 0 (prevention mode) and 4 days after laser (regression mode) and followed for 10 weeks. FIG. 3C is a graph showing the area of leakage by each eye for various groups. FIG. 3D are graphs of the mean area of leakage of all batches for each group. […] The attenuation retinal vascularization was better than scrambled peptide. n=6 eyes per batch; n=3 batches. Values are expressed as means±s.e.m., **P<0.01, *P<0.05, student's t-test. FIG. 3E is a graph of the result of the Retinal Function Test that measures ERG changes in Angio-3 treated and control.
FIG. 4A is a schematic of the experimental design on the efficacy of Angio-3 by IVT administration. […]
FIG. 11 A are FFA images of baseline and at different time points post treatment. Mice received single IVT injection of Angio-3 (at a dose of 1 μg in 1 μl or 100 ng in 1 μl), and chemically modified Angio-3 peptides Pep-N (at doses of 5 μg in μl; 1 μg in μl; and 100 ng in 1 μl, respectively) and Pep-Q peptides (at doses of 5 μg in μl; 1 μg in μl; and 100 ng in 1 μl, respectively). FIG. 11 B is a graph of the area of leakage by each eye. Single dose attenuates retinal angiogenesis in laser-induced mice CNV model via IVT route till 4 weeks. […] Eylea is the positive control. n=18 eyes per group; Values are expressed as means±s.e.m. n=3 independent experiment, **P<0.01, *P<0.05, student's t-test.
Laser induced choridal neo-vascularization (CNV) in C57/BL6J (B6J) wild type mice (n=90).
In B6J mice, single injection of 100 μl volume at 25 mg/kg Bwt concentration Angio-3 was injected via intravenous (i/v) route and this was tested in both Preventive mode (before laser) and Regression mode (4 days after laser). […]
Angio-3 was also injected via intravitreal (IVT) route, single injection of 1 μl volume at 2 different doses; 1 μg (High dose) and 100 ng (Low dose).
4 laser photocoagulation sites were placed concentrically around the optic disc of both eyes to induce CNVs. A diode laser (810 nm) was used with a relative potency scale of 120 mW for mice and 250 mW for rats, an exposure time of 0.05 s, and a spot size of […]. Laser spots were focused with crystal covers to avoid laser beam dispersion. Bubble formation was confirmed the rupture of Bruch's membrane.
Fundus photography and fundus fluorescein angiography (FFA) was imaged using a MICRON IV fundus camera (Phoenix Laboratories USA). For FFA, animals were intraperitoneally injected with 10% sodium fluorescein at a dose of 0.01 ml per 5-6 gm body weight.
In B6J mice, single intravitreous (IVT) injection of 100 ng, 1 μg, 5 μg PEP-Q, PEP-N (modified Angio-3), Angio-3 and Eylea were executed and this was tested in Prevention mode (before laser) Method of Llser induced CNV model and injection was described as above.

[2] = tested on: corneal neovascularization after alkali-burn injury in mice; test: Corneal neovascularization after alkali-burn injury in mice; type: in vivo, mouse; conditions: 1% solution topically 3×/day for 7 days; vs vehicle control
Experimental: Mice were anesthetized with the combination of 80 mg/kg ketamine and 5 mg/kg xylazine. One drop of 1% xylocaine was applied to the corneal surface for local analgesia. Round piece of filter paper, approximately 2 mm in diameter was soaked in a solution of 1 M NaOH. A piece of NaOH soaked filter paper was picked by sterile forceps. NAOH soaked filter paper was placed on the central cornea under microscope to ensure properly placing the filter paper. Left it for 30 sec to generate an acute alkali-burn of approximately 2×2 mm^2 in area. Filter paper was removed and then gently flushed the eye with 10 ml of 1×PBS twice to wash away residual 1 M NaOH. Only one eye of the mouse was injured and the other serving as a control. A drop of 1× Peptide Q (1% solution as test compound) or a vehicle control consisting of PBS was topically applied to the cornea. Repeated application occurred 3×/day for 7 days. At end point, clinical assessment was done as stated below and eyes were enucleated for corneal flat mount.
A daily examination of the mice in a blinded fashion was performed under a surgical microscope and score corneal neo-vascularization (NV) was based on corneal opacity, NV and vessel size. Two observers were scored and record a final score that was the average of the two. Score corneal opacity on a scale of 0-4. […]

[3] = tested on: laser-induced CNV in Cynomolgus monkeys; test: Laser-induced CNV model in Cynomolgus monkeys (wet AMD model); type: in vivo, Cynomolgus monkey; conditions: 2 mg Angio-3, 2 mg and 4 mg PeptideQ, 2 mg Eylea, single IVT
Experimental: FIGS. 25A, 25B, 25C, 25D, 25E, and 25F show the results of testing in a laser-induced chorodial neovascularization (CNV) model in Cynomolgus moneys developed as an experimental model of wet AMD. FIG. 25A is a schematic of the study design. FIG. 25B are representative fundus fluorescein angiography (FFA) images of all groups. FIG. 25C is a graph showing change in mean lesion grade of the eye in monkeys treated with a single dose 2 mg of Angio-3, dose 2 mg of anti-VEGF (Eylea), 2 mg of peptide (Q2) and 4 mg of peptide (Q4) and control. […] FIG. 25E is a graph of laser area quantified from the FFA images by ImageJ software. FIG. 25F are graphs of laser volume quantified from PS-OCT images by ImageJ software.
A laser-induced choroidal neovascularization (CNV) model was developed and validated in Cynomolgus monkeys as experimental model of wet AMD. […] The development of active CNV was assessed by fluorescein angiography, at Day 14 the baseline degree of neovascularization and leakiness were measured and the final fluorescein angiography assessment was performed on Day 28. Leakage area was quantified by ImageJ software. The laser volume was quantified by Spectralis-Heidelberg software using SD-OCT images.

HRMEC cells [4] = test: VEGF induced proliferation of HRMEC cells (Alamar-Blue); type: cell-based; conditions: 300 μg/ml; 10 ng/ml or 50 ng/ml VEGF165; 3 days
Experimental: 2000 HRMEC cells were seeded in 96-well plates in 100 μl of media and placed in a CO2 incubator at 37° C. To evaluate the effect the compounds have on VEGF-induced HRMEC proliferation, cells were treated with 10 ng/ml VEGF165 or 50 ng/ml VEGF165 in the presence of different concentrations of Angio-3 after serum starved in EBM-2 supplemented with 0.5% FBS overnight. 300 μg/ml Avastin was used as a positive control. Alamar-Blue assay was performed after 3 days of treatment.

HRMEC cells [5] = test: HRMEC transwell migration assay; type: cell-based; conditions: 300 μg/ml; 50 ng/ml VEGF165; overnight
Experimental: Transwell migration assays were performed in a 24-well cells culture plate containing 8.0 μm pore size inserts. HRMEC cells were serum starved overnight prior of assay. The lower chamber were filled with EBM-2, EBM-2 supplemented with 50 ng/ml VEGF165 plus different concentrations of inhibitors. 1×10^5 Cells in EBM-2 were seeded in the upper chamber. Cells were allowed to migrate to the other side of membrane for overnight at 37° C. Cells on top of the membrane were wiped off and cells migrated to the other side were fixed and stained with 0.4% crystal violet. Cell numbers were counted under a 10× objective for 5 randomly selected fields.

Substance | Area of Leakage (mean) Week 1 ([1]; 100 ng single IVT) | Area of Leakage (mean) Week 4 ([1]; 100 ng single IVT) | % Reduction (area of leakage) ([1]; 100 ng single IVT) | Area of Leakage (mean) Week 1 ([1]; 1 μg single IVT) | Area of Leakage (mean) Week 4 ([1]; 1 μg single IVT) | % Reduction (area of leakage) ([1]; 1 μg single IVT) | Area of Leakage (mean) Week 1 ([1]; 5 μg single IVT) | Area of Leakage (mean) Week 4 ([1]; 5 μg single IVT) | % Reduction (area of leakage) ([1]; 5 μg single IVT) | choroidal angiogenesis [1] | corneal NV area seven days after alkali-burn injury [2] | comparative efficacy between treatment groups [3] | VEGF induced HRMEC proliferation (HRMEC cells [4]) | VEGF induced HRMEC migration (HRMEC cells [5])
Thr Pro His Thr His Asn Xaa Thr Pro Glu, wherein Xaa is homoarginine (TPHTHN[hArg]TPE) [PEP-N, chemically modified Angio-3 peptide] | 11287.40 | 2237.13 | 42.00% | 12808.95 | 2402.54 | 43.06% | 8251.43 | 749.71 | 52.73% | significantly attenuates the choroidal angiogenesis |  |  |  | 
Thr Pro His Thr His Gln Xaa Thr Pro Glu, wherein Xaa is homoarginine (TPHTHQ[hArg]TPE) [PEP-Q, chemically modified Angio-3 peptide] | 9987.09 | 1283.52 | 48.96% | 13444.14 | 1271.30 | 52.36% | 12839.27 | 742.03 | 56.04% | significantly attenuates the choroidal angiogenesis | significantly reduced corneal NV area | dose dependent efficacy and higher dose efficacy close to Eylea |  | 
bevacizumab [Avastin] |  |  |  |  |  |  |  |  |  |  |  |  | sufficient to inhibit VEGF induce proliferation | completely blocked
